The values that follow come from patent US20260034075A1, “CHOLINE CARBOXYLIC ACID BASED IONIC LIQUIDS AS ANTIMICROBIAL AGENTS” (University of Mississippi, priority 2022, published 2026).

Holding throughout (assay type): cell-based
The test system of one data set is E. coli [BL21(DE3)]. Kind of data set: Minimal Bactericidal Concentration (MBC) measurements, E. coli. As for the experimental part: (§1) Bacterial Cell Culturing. Expression cells from frozen stock were streaked onto a kanamycin-selected lysogeny broth (LBKan) agar plate using a sterile loop and incubated overnight at 37° C. One colony was then taken from the plate the next day to inoculate 50 mL of sterile LBKan broth and shaken at 37° C. until reaching a growth concentration of 4×10^8 CFU/mL. This protocol was used for bacterial cell culture preparation in all of the experiments described below.
Minimal Bactericidal Concentration (MBC) Measurements. E. coli cells were cultured as described above and aliquoted into sterile tubes. 1%, 10%, and 100% (w/v) solutions of IL in sterile water (correcting for water percentage of the IL) were prepared and sonicated for 15 minutes at 40° C. before addition to the liquid culture. IL solutions were then added to E. coli at varying percentages (v/v), allowing calculation of the actual concentration of IL that was added to the culture. 100 μL of each solution was then spread onto an LBKan agar plate and incubated overnight at 37° C. […] Each IL solution was tested in triplicate.

The test system of data set [1] is Human embryonic kidney (HEK-293) cells. The method, then:
Cytotoxicity Studies. Human embryonic kidney (HEK-293) cells were treated in vitro with four of the top candidates (CADA 1:1, CADA 1:2, CA2DE 1:2, and CA3DE 1:2) to determine the concentration at which the IL dosage is toxic to human cells. 1% (w/v) solutions of each IL in sterile water were prepared similarly to the MBC experiments before addition at five different concentrations. The HEK cells were incubated with the IL treatments for 24 hours and then prepared with CellTiter-Glo(R) Luminescent Cell Viability reagent (100 μL per well). Brightfield microscopy images were used to qualitatively depict the concentration at which the cells were no longer viable, while a 96-well plate reader was used to quantitatively determine the percent viability of the cells at each concentration of the ILs. Quantitative measurements were performed in triplicate.
Human Biocompatibility Studies. […]
The viability of the cells was then quantified by preparing the IL-treated cells with 100 μL of CellTiter-Glo(R) Luminescent Cell Viability reagent in each well and measuring the luminescence on the plate reader. […] The results are expressed as percent viability and present as mean±standard deviation of three independent experiments (FIGS. 8A-8D). […]

A further data set concerns E. coli. Kind of data set: E. coli kinetic study (OD600 over 16 hours, first-order kinetics fit). As for the experimental part:
E. coli Kinetic Study. A 96-well plate was filled with 180 μL of E. coli cells that were cultured as mentioned above and treated with 20 μL CADA 1:1 of concentrations ranging from the lethal concentration to one-sixteenth of that concentration to determine how the growth inhibition is affected with changing concentration of the IL. 20 μL of growth media was added to the “untreated” cells such that all wells contained a total volume of 200 μL. The plate was heated to 37° C. with triplicate OD600 measurements taken every 20 minutes over the course of 16 hours with a Biotek Synergy H1 microplate reader.
Bactericidal and Bacteriostatic Activity Kinetics. […] CADA 1:1 was employed instead of CADA 1:2 in this study because of its lowered turbidity in comparison. 180 μL of liquid E. coli culture was added to each well of a 96-well plate and brought up to 200 μL with either IL treatment or growth media alone if untreated. […] However, the cells treated with sublethal concentrations of IL still show what seem to be minor inhibitory interactions with the IL before exiting the lag phase and starting to grow. […] The turbidity of longer chain choline carboxylic acid-based ILs is quite high in aqueous solution and can falsely be determined as growth in OD measurements. Previous studies have shown that the critical micellar concentration (CMC) tends to […] with alkyl chain length and ionic strength, which could potentially affect antimicrobial efficacy. Therefore, IL solutions in sterile water at the same concentrations used to treat the bacteria were utilized as a control and subtracted from the wells with E. coli cells receiving IL treatment.
Integration of Growth Inhibition Following First-Order Kinetics. […] This was achieved by plotting In([A]T/[A]0) vs. time during the growth period to produce a linear representation of the logarithmic growth. Once the integrations were performed and plotted, rate constants were extracted with uncertainty from the slope of the trendlines. For the untreated cells and cells treated with sublethal concentrations, the logarithmic growth was positive, therefore, the rate constant should be positive. […] The rate of inhibition (k=0.0055±0.0002) was almost one-third of the growth rate of the cells that received no treatment, meaning that the inhibition is occurring immediately and for the duration of the study, suppressing the natural growth of the cells by 70%.

In another data set the test system is MRSA [BAA-1708]. Kind of data set: Growth inhibition / MBC of Methicillin Resistant Staphylococcus aureus (MRSA). As to conditions: Table 2; 1:2 mole ratio ILs. As for the experimental part:
as §1
Growth Inhibition of Methicillin Resistant Staphylococcus Aureus (MRSA). 10% (w/v) solutions of IL in sterile water were prepared similarly to the E. coli MBC experiments. ILs with anion chain lengths of 8-12 carbons at 1:2 mole ratio of choline to anion were added to MRSA at varying concentrations to determine the lowest concentration in which growth was inhibited. Concentrations were then compared to values obtained for E. coli for each solution.

[2] abbreviates: Table 1, lowest IL concentration with no growth on LBKan agar plate, triplicate.

For the compound `CCCCCCCCCC(=O)[O-].C[N+](C)(C)CCO` [CADA 1:1, Choline Decanoate 1:1], the “E. coli MBC” value in the data set on E. coli [BL21(DE3)] (setting [2]) is 3480 µM. For the same compound, the percent viability result in data set [1] is reported as “over 97%”. Further, the “suppression of the natural growth of the cells” value in the data set with E. coli (lethal concentration) turned out to be 70%. The “rate of inhibition k” value in the data set on E. coli (lethal concentration, first-order fit of OD600) turned out to be 0.0055±0.0002. Moreover, in the data set on E. coli (lethal concentrations, 16 hours), the “OD600 course at lethal concentration” value is “inhibited immediately with a steady decrease in OD600”. For the same compound, in the data set with E. coli (sublethal doses, extended lag phase), the “delay of normal growth after the untreated cells entered the log phase” value is recorded as “about two”. Moreover, in the data set on E. coli (sublethal treatment), the “growth rate relative to the rate of the untreated cells” value is on record as 20-25%. The “growth rate constant k” value with E. coli (sublethal treatment, first-order fit of OD600) amounted to 0.0039±0.0002.
Choline Decanoate 1:2 [CADA 1:2]: in the data set with E. coli [BL21(DE3)], the “E. coli MBC / killing efficacy concentration” value is 560 µM. The “E. coli MBC” value with E. coli [BL21(DE3)] (setting [2]) was determined as 560 µM; in the data set with E. coli [BL21(DE3)] (Table 2, comparison with MRSA), 560 µM. The compound further displayed a percent viability in data set [1] above 60%. The “MRSA MBC” value in the data set on MRSA [BAA-1708] was 2230 µM.
